≈ marks a conversion by molar mass, not a printed value. Where “and” joins values, the source holds several entries; their conditions need not be identical. Equal entries are not always repeated.
How the values were obtained:
[1] = tested on: Staphylococcus aureus; experiment: Ratio of Ki for TMP-resistant Staphylococcus aureus DHFR to Ki for wild type Staphylococcus aureus DHFR
[2] = molecular target: Dihydrofolate reductase (Staphylococcus aureus, UniProt P0A017); experiment: Inhibition of Staphylococcus aureus wild type recombinant DHFR by MTS assay
[3] = molecular target: Dihydrofolate reductase (Staphylococcus aureus, UniProt P0A017, F99Y); experiment: Inhibition of Staphylococcus aureus DHFR F98Y mutant by MTS assay
[4] = tested on: Staphylococcus aureus; experiment: Antimicrobial activity against methicillin-resistant Staphylococcus aureus; type: functional
[5] = tested on: Staphylococcus aureus; experiment: microbe, parasite or virus in culture; conditions: isolate NRS123
[6] = tested on: Staphylococcus aureus; experiment: Antimicrobial activity against methicillin-resistant Staphylococcus aureus isolate NRS70 by broth microdilution method; type: functional
[7] = tested on: Yersinia pestis; experiment: Antimicrobial activity against Yersinia pestis CO92 by broth microdilution method; type: functional
[8] = tested on: Staphylococcus aureus; experiment: Antimicrobial activity against vancomycin-resistant Staphylococcus aureus VRS1 by broth microdilution method; type: functional
[9] = tested on: Francisella tularensis; experiment: Antimicrobial activity against Francisella tularensis Schu4 by broth microdilution method; type: functional
[10] = tested on: Bacillus anthracis; experiment: Antimicrobial activity against Bacillus anthracis Ames by broth microdilution method; type: functional
[11] = tested on: Enterococcus faecalis; experiment: Antimicrobial activity against vancomycin-resistant Enterococcus faecalis ATCC 700802 by broth microdilution method; type: functional
[12] = tested on: Staphylococcus aureus; experiment: Antimicrobial activity against vancomycin-resistant Staphylococcus aureus VRS2 by broth microdilution method; type: functional
[13] = tested on: Brucella abortus; experiment: Antimicrobial activity against Brucella abortus 2308 by broth microdilution method; type: functional
[14] = tested on: Staphylococcus aureus; experiment: microbe, parasite or virus in culture; conditions: isolate NRS71
[15] = tested on: Staphylococcus aureus; experiment: Antimicrobial activity against methicillin-resistant Staphylococcus aureus isolate NRS1 by broth microdilution method; type: functional
[16] = tested on: Staphylococcus aureus; experiment: Antimicrobial activity against vancomycin-resistant Staphylococcus aureus VRS3 by broth microdilution method; type: functional

`CCC[C@H]1c2ccccc2C=NN1C(=O)/C=C/c1cc(Cc2cnc(N)nc2N)cc(OC)c1OC` was tested, and the Ratio IC50 [1] was 0.6, the Ratio Ki [1] was 0.2 and the IC50 [2] was 2.9 nM and 12.5 nM. For the same compound, the Ki [2] was 0.9 nM and the Ki [3] was 0.2 nM.
For `COc1cc(Cc2cnc(N)nc2N)c2c(c1OC)OC(C1CC1)C=C2` (centres undefined), the MIC [4] was no more than 0.06 µg/mL.
`COc1ncc([C@H]2c3ccccc3C=NN2C(=O)/C=C/c2cc(Cc3cnc(N)nc3N)cc(OC)c2OC)cn1` was tested, and the Ratio IC50 [1] was 5.7, the Ratio Ki [1] was 1.9 and the IC50 [2] was 11.5 nM and 3.9 nM. The Ki [2] was 3.5 nM, the IC50 [3] was 65.4 nM and the Ki [3] was 6.5 nM.
`COc1cc(-c2ccccc2)cc([C@@H](C)C#Cc2c(C)nc(N)nc2N)c1` gave an IC50 [2] of 61 nM and an IC50 [3] of 190 nM.
`CCCC1c2ccccc2C=NN1C(=O)/C=C/c1cc(Cc2cnc(N)nc2N)cc(O)c1OC` (centres undefined) showed an MIC [5] of no more than 0.0625 µg/mL, a Ratio IC50 [1] of 0.9 and a Ratio Ki [1] of 0.3. The MIC [6] was no more than 0.0625 µg/mL, the MIC [7] was 4 µg/mL (≈ 8.46 µM) and the MIC [8] was 8 µg/mL (≈ 16.9 µM). For the same compound, the MIC [9] was 1 µg/mL (≈ 2.12 µM), the MIC [10] was 1 µg/mL (≈ 2.12 µM) and the MIC [11] was 0.03 µg/mL (≈ 0.0635 µM). For the same compound, the MIC [12] was 4 µg/mL (≈ 8.46 µM), the IC50 [2] was 9.4 nM and 5.2 nM and the Ki [2] was 2.8 nM. It also gave an MIC [13] of 16 µg/mL (≈ 33.9 µM), an MIC [14] of no more than 0.0625 µg/mL and an MIC [15] of no more than 0.0625 µg/mL. The MIC [16] was no more than 0.125 µg/mL, the IC50 [3] was 8.8 nM and 22.6 nM and the Ki [3] was 0.9 nM.
`COc1cc([C@H](C)C#Cc2c(C)nc(N)nc2N)ccc1-c1c(C)cccc1C` was tested, and the IC50 [2] was 61 nM and the IC50 [3] was 190 nM.
For `O=C(O)c1cn(C2CC2)c2cc(N3CCNCC3)c(F)cc2c1=O` [CIPROFLOXACIN], the MIC [5] was 0.5 µg/mL (≈ 1.51 µM), the MIC [6] was 0.5 µg/mL (≈ 1.51 µM) and the MIC [8] was greater than 16 µg/mL. The MIC [12] was greater than 16 µg/mL, the MIC [14] was greater than 16 µg/mL and the MIC [16] was greater than 16 µg/mL.
Work on `CCC[C@@H]1C[C@@H](C(=O)N[C@@H]([C@H]2O[C@H](SC)[C@H](O)[C@@H](O)[C@H]2O)[C@H](C)Cl)N(C)C1` [CLINDAMYCIN] yielded an MIC [5] of 0.12 µg/mL (≈ 0.282 µM), an MIC [6] greater than 4 µg/mL and an MIC [8] greater than 4 µg/mL. It also gave an MIC [12] greater than 4 µg/mL, an MIC [14] greater than 4 µg/mL and an MIC [16] greater than 4 µg/mL.
Work on `Nc1ccnc(N)n1` [DIAMINOPYRIMIDINE] yielded an MIC [5] of 0.5 µg/mL (≈ 4.54 µM) and an MIC [15] of 2 µg/mL (≈ 18.2 µM).
In the case of `CC[C@H]1OC(=O)[C@H](C)[C@@H](O[C@H]2C[C@@](C)(OC)[C@@H](O)[C@H](C)O2)[C@H](C)[C@@H](O[C@@H]2O[C@H](C)C[C@H](N(C)C)[C@H]2O)[C@](C)(O)C[C@@H](C)C(=O)[C@H](C)[C@@H](O)[C@]1(C)O` [ERYTHROMYCIN], the MIC [5] is reported as 0.5 µg/mL (≈ 0.681 µM), the MIC [6] is reported as greater than 8 µg/mL and the MIC [8] is reported as greater than 8 µg/mL. It also gave an MIC [12] greater than 8 µg/mL, an MIC [14] greater than 8 µg/mL and an MIC [16] greater than 8 µg/mL.
For `CC(=O)NC[C@H]1CN(c2ccc(N3CCOCC3)c(F)c2)C(=O)O1` [LINEZOLID], the MIC [6] was 1 µg/mL (≈ 2.96 µM), the MIC [12] was 1 µg/mL (≈ 2.96 µM) and the MIC [14] was 1 µg/mL (≈ 2.96 µM).
`Cc1onc(-c2ccccc2)c1C(=O)N[C@@H]1C(=O)N2[C@@H]1SC(C)(C)[C@@H]2C(=O)O` [OXACILLIN] was tested, and the MIC [5] was greater than 16 µg/mL, the MIC [6] was greater than 16 µg/mL and the MIC [8] was greater than 16 µg/mL. The MIC [12] was greater than 16 µg/mL, the MIC [14] was greater than 16 µg/mL and the MIC [15] was greater than 32 µg/mL. It also gave an MIC [16] greater than 16 µg/mL.
`CC1(C)S[C@@H]2[C@H](NC(=O)Cc3ccccc3)C(=O)N2[C@H]1C(=O)O` [PENICILLIN G] gave an MIC [5] greater than 2 µg/mL, an MIC [6] greater than 2 µg/mL and an MIC [8] greater than 2 µg/mL. It also gave an MIC [12] greater than 2 µg/mL, an MIC [14] greater than 2 µg/mL and an MIC [15] greater than 8 µg/mL. It also gave an MIC [16] greater than 2 µg/mL.
`CN(C)[C@@H]1C(O)=C(C(N)=O)C(=O)[C@@]2(O)C(O)=C3C(=O)c4c(O)cccc4[C@@](C)(O)[C@H]3C[C@@H]12` [TETRACYCLINE] showed an MIC [5] of 32 µg/mL (≈ 72 µM) and an MIC [15] of 32 µg/mL (≈ 72 µM).
`COc1cc(Cc2cnc(N)nc2N)cc(OC)c1OC` [TRIMETHOPRIM] showed an MIC [5] of 2 µg/mL (≈ 6.89 µM), an MIC [6] of 2 µg/mL (≈ 6.89 µM) and an MIC [7] of no more than 1 µg/mL. For the same compound, the MIC [8] was greater than 256 µg/mL, the MIC [9] was 16 µg/mL (≈ 55.1 µM) and the MIC [10] was greater than 256 µg/mL. The MIC [11] was no more than 1 µg/mL, the MIC [12] was greater than 256 µg/mL and the MIC [13] was 32 µg/mL (≈ 110 µM). The MIC [14] was 2 µg/mL (≈ 6.89 µM), the MIC [15] was 2 µg/mL (≈ 6.89 µM) and the MIC [16] was 2 µg/mL (≈ 6.89 µM).
`CN[C@H](CC(C)C)C(=O)N[C@H]1C(=O)N[C@@H](CC(N)=O)C(=O)N[C@H]2C(=O)N[C@H]3C(=O)N[C@H](C(=O)N[C@H](C(=O)O)c4cc(O)cc(O)c4-c4cc3ccc4O)[C@H](O)c3ccc(c(Cl)c3)Oc3cc2cc(c3O[C@@H]2O[C@H](CO)[C@@H](O)[C@H](O)[C@H]2O[C@H]2C[C@](C)(N)[C@H](O)[C@H](C)O2)Oc2ccc(cc2Cl)[C@H]1O` [VANCOMYCIN] gave an MIC [8] greater than 256 µg/mL, an MIC [12] of 64 µg/mL (≈ 44.2 µM) and an MIC [15] of 8 µg/mL (≈ 5.52 µM). For the same compound, the MIC [16] was greater than 32 µg/mL.
For GENTAMICIN, the MIC [6] was 1 µg/mL, the MIC [8] was greater than 16 µg/mL and the MIC [12] was greater than 16 µg/mL. The MIC [15] was greater than 16 µg/mL and the MIC [16] was greater than 16 µg/mL.

From ChEMBL document CHEMBL1671719, “Inhibition of antibiotic-resistant Staphylococcus aureus by the broad-spectrum dihydrofolate reductase inhibitor RAB1” (Antimicrob Agents Chemother, 2010)
